Experimental data published in US7858637B2, “Administration of TLR7 ligands and prodrugs thereof for treatment of infection by hepatitis C virus” (priority 2003, dated 2010).
Where a name gives a salt, the structure may show the parent alone. Read-outs that look alike come from different tables or passages of the source.

Assays:
HCV replicon = experiment: HCV replicon-based viral bioassay with supernatants of compound-treated PBMC; format: cell-based, hepatitis C virus
Procedure: A quantitative assay was developed which is based on measuring the activity of the luciferase reporter gene that was integrated into an HCV replicon. By using this system, interferons from TLR7 agonist-treated PBMCs were measured and their inhibitory activity was assessed using the luciferase reporter replicon.
Human PBMCs isolated from a healthy donor were placed in replicate cell culture wells (5×10^6 cells per well). The PBMCs are incubated in the absence of test compounds at 37° C. in a humidified atmosphere containing 5% CO2 for 24 hours to allow stabilization to the culture conditions, and then the TLR7 ligand or a drug free control is added to replicate wells containing PBMCs from the same donor. The concentrations of TLR7 ligand may be varied to suit the particular experiment, and the PBMC cultures are then incubated at 37° C. in a humidified atmosphere containing 5% CO2 for eight hours. Samples of cell culture supernatant are taken at the eight hour time point (or twenty four hour time point in case of Loxoribine and its prodrugs) from TLR7 ligand treated and control wells and are assayed for interferon-alpha production by ELISA. Supernatants from compound-treated cells and a no-drug control were diluted at 1:10, 1:100, and 1:1000 in RPMI media and applied to a 96-well plate of Huh7 hepatocyte cells containing the luciferase reporter replicon. Cells were incubated for 48 hours at 37° C. in a tissue culture incubator.
After the incubation period, the 96-well plates are washed 2× with PBS and are lysed with passive lysis buffer (Promega). Plates are shaken at room temperature for 20 minutes and standard luciferase assay reagent (Promega) is added to each well by injection and the plate is read on an Lmax luminometer (Molecular Devices).
A supernatant collected from PBMC cells non-exposed to the compound and diluted as specified in the first column was used as a control (“Blank supernatant”). The PBMC cells were isolated from a single blood donor as specified.

[1] = test system: human peripheral blood mononuclear cells (PBMC); experiment: PBMC assay of interferon alpha release (masking); format: cell-based
Procedure: A typical experiment would use human peripheral blood mononuclear cells (PBMC) isolated from a healthy donor and placed in replicate cell culture wells; typically, 2×10^6 to 5×10^6 cells are placed in each well. The PBMC are incubated in the absence of test compounds at 37° C. in a humidified atmosphere containing 5% CO2 for 24 hours to allow stabilization to the culture conditions, and then 100 micromolar isatoribine, the TLR7 ligand and a corresponding TLR7 ligand prodrug are added to separate wells containing PBMC from the same donor; untreated controls are included. The concentrations of TLR7 ligand and TLR7 ligand prodrug may be varied to suit the particular experiment, and the PBMC cultures are then incubated at 37° C. in a humidified atmosphere containing 5% CO2 for a period of time ranging from two hours to 48 hours. Samples of cell culture supernate media are taken during the incubation. These are assayed for cytokine production by ELISA. Additionally the amount of TLR7 ligand and TLR7 ligand prodrug remaining at the end of the incubation may be assayed by LC-MS. Cytokine production is calculated relative to production in the isatoribine control, following subtraction of the cytokine production in untreated controls.
Thus, if the TLR7 ligand generates more interferon alpha (a conveniently measured cytokine) than does the corresponding TLR7 ligand prodrug after a similar duration of exposure and concentration, the TLR7 ligand prodrug may be deemed a “masked” TLR7 ligand prodrug.

interferon alpha = experiment: Interferon alpha plasma concentrations in mice; format: in vivo, mouse
Source text: Not only can one measure the plasma concentrations of isatoribine arising from oral administration of the said prodrug(s) but also the extensive immunological research conducted in the mouse has provided reagents suitable for measuring the levels of interferon alpha, a cytokine of interest reflecting one of the desired biologic activities of isatoribine.

[2] = Toxicology studies, GI tolerance in beagle dogs; format: in vivo, beagle dog; details: dogs, oral val-isatoribine
Source text: We compared in the dog the oral toxicology of 21 and 24, and the intravenous toxicology of 21. We observed that the oral toxicology of 24 was much more like intravenous 21 than it was like oral 21.

human TLR7 = target: T1, human TLR7 (Homo sapiens, UniProt Q9NYK1); experiment: HEK293-hTLR7 NF-kB luciferase reporter (C23) assay; details: read-out: mean fold induction of luciferase activity compared to the no drug control
T1 sequence (Q9NYK1 27-1049): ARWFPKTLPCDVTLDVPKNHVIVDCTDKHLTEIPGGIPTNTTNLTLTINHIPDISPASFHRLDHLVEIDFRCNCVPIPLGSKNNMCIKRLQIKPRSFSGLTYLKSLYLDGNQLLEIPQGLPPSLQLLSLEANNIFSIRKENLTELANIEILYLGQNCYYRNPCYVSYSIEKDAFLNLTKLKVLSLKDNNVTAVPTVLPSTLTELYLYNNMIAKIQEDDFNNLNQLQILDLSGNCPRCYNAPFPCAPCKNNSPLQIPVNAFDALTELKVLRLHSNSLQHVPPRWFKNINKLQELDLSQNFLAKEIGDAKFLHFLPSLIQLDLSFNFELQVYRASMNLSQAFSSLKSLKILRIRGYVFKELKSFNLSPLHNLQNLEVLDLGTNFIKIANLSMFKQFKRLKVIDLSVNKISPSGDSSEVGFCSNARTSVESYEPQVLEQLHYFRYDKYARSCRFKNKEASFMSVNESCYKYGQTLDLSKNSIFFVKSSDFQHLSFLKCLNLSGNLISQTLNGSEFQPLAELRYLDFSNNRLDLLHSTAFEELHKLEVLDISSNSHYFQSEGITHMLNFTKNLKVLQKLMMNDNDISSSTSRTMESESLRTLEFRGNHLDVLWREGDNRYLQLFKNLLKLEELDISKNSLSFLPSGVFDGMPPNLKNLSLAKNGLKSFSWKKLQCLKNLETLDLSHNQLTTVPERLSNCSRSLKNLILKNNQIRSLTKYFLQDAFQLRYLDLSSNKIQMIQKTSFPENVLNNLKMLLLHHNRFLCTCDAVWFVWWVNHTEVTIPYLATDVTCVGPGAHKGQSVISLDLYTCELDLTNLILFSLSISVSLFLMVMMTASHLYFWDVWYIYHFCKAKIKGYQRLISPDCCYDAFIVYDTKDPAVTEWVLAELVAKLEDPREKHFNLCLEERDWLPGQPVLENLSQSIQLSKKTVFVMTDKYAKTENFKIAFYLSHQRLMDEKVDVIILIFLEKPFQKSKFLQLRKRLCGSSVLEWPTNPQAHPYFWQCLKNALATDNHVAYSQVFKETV
Procedure: A stable HEK293-hTLR7 cell line was obtained from Invivogen (San Diego, Calif.), transfected with pNiFty2-Luc, an NF-kB inducible luciferase reporter plasmid (Invivogen) and (dual) stable transfectants selected. The resultant dual (hTLR7/pNiFty2-Luc) cell lines were functionally tested by response to loxoribine and isatoribine as measured by fold luciferase induction relative to a no drug control. […] See, e.g., Hemmi H. et al., Nat.
For a typical C23 assay, cells are seeded at 6×10^4 cells/well in 96 well plates and 4-24 hours later are treated with various concentrations of compound. After 2-48 hours exposure the cell monolayers are lyzed with passive lysis buffer (Promega) and the firefly luciferase assay carried out using the luciferase assay reagent (Promega) as specified by the manufacturer. Relative luciferase activities are expressed as folds of induction compared to the no drug control. A two-fold induction over background is considered a bona fide TLR7 agonist, dependent on this being a statistically significant increase.
In Table 1, isatoribine, was added to C23 cells for forty-eight hours, and the cells were then harvested and assayed for luciferase activity. Each time-point was assayed in triplicate.
Each time-point was assayed in triplicate.

[3] = isatoribine equivalent applied dose 8.1 mg/kg
[4] = isatoribine equivalent applied dose 16 mg/kg
[5] = isatoribine equivalent applied dose 32 mg/kg
[6] = isatoribine equivalent applied dose 64 mg/kg
[7] = Homo sapiens, PBMC, Table 9, 100 μM, 24 hours exposure, same blood donor, read-out: Amount of INFa relative to that induced by isatoribine at 100 μM

Compound: C=CCn1c(=O)n([C@@H]2O[C@H](CO)[C@@H](O)[C@H]2O)c2nc(N)[nH]c(=O)c21 [Compound 17, 7-allyl-2-amino-9-β-D-ribofuranosyl-7,9-dihydro-1H-purine-6,8-dione]
- HCV replicon inhibition (HCV replicon; Table 4 No. 1, PBMC exposed 24 hours to 100 μM, donor FL75864, supernatant dilution 1:10): 100%
- HCV replicon inhibition (HCV replicon; Table 4 No. 1, PBMC exposed 24 hours to 100 μM, donor FL75864, supernatant dilution 1:100): 74%
- HCV replicon inhibition (HCV replicon; Table 4 No. 1, PBMC exposed 24 hours to 100 μM, donor FL75864, supernatant dilution 1:1000): 17%
- Emax at 100 µM ([1]; Homo sapiens, PBMC, Table 10, 100 μM, 24 hours exposure, read-out: Amount of INFa relative to that induced by isatoribine at 100 μM): 50%

Compound: CC(C)[C@H](N)C(=O)OC[C@H]1O[C@@H](n2c(=O)sc3c(O)nc(N)nc32)[C@H](O)[C@@H]1O [Compound 24, 5-Amino-3-(5′-O-L-valinyl-β-D-ribofuranosyl)thiazolo[4,5-d]pyrimidine-2,7-dione Dihydrochloride]
- Emax at 100 µM ([1]; Homo sapiens, PBMC, Table 9, 100 μM, 8 hours exposure, same blood donor, read-out: Amount of INFa relative to that induced by isatoribine at 100 μM): 1%
- increase of the magnitude of both the average and peak interferon response over isatoribine (interferon alpha; mice, oral dosing): 100%
- levels of isatoribine and interferon relative to those after intravenous isatoribine (interferon alpha; mice, oral, 50 mg/kg isatoribine molar equivalent vs intravenous isatoribine 25 mg/kg, FIG. 1): approximately 50%
- mice with detectable interferon in their plasma (interferon alpha; oral dosing, data of Tables 15, 16 and 17): 10 of the 30
- Emesis or loose stool [2, 3]: Neg.
- GI lesions or irritation [2, 3]: Neg.
- Emesis or loose stool [2, 4]: Neg.
- GI lesions or irritation [2, 4]: Neg.
- Emesis or loose stool [2, 5]: Neg.
- GI lesions or irritation [2, 5]: Neg.
- Emesis or loose stool [2, 6]: Neg.
- GI lesions or irritation [2, 6]: Neg.
- GI lesions or irritation ([2]; isatoribine equivalent applied dose 130 mg/kg): Neg.
- GI lesions or irritation ([2]; isatoribine equivalent applied dose 260 mg/kg): Neg.
- GI lesions or irritation ([2]; isatoribine equivalent applied dose 390 mg/kg): Neg.

Compound: COCCOc1nc(N)c2nc(O)n(Cc3ccccc3)c2n1 [Compound 29, 6-Amino-9-benzyl-2-(2-methoxy-ethoxy)-9H-purin-8-ol]
- fold induction at 1 µM (human TLR7): 20.8
- fold induction at 3.2 µM (human TLR7): 37.3
- fold induction at 10 µM (human TLR7): 47.5
- fold induction at 32 µM (human TLR7): 48.4
- HCV replicon inhibition (HCV replicon; Table 8 No. 1, PBMC exposed 8 hours to 0.1 μM, a TFA salt, donor FL76418, supernatant dilution 1:10): 100%
- HCV replicon inhibition (HCV replicon; Table 8 No. 1, PBMC exposed 8 hours to 0.1 μM, a TFA salt, donor FL76418, supernatant dilution 1:100): 73%
- HCV replicon inhibition (HCV replicon; Table 8 No. 1, PBMC exposed 8 hours to 0.1 μM, a TFA salt, donor FL76418, supernatant dilution 1:1000): 0%
- HCV replicon inhibition (HCV replicon; Table 8 No. 2, PBMC exposed 8 hours to 0.1 μM, a TFA salt, donor FL76418, supernatant dilution 1:10): 100%
- HCV replicon inhibition (HCV replicon; Table 8 No. 2, PBMC exposed 8 hours to 0.1 μM, a TFA salt, donor FL76418, supernatant dilution 1:100): 64%
- HCV replicon inhibition (HCV replicon; Table 8 No. 2, PBMC exposed 8 hours to 0.1 μM, a TFA salt, donor FL76418, supernatant dilution 1:1000): 9%
- Emax at 0.1 µM ([1]; Homo sapiens, PBMC, Table 14, 0.1 μM, 24 hours exposure, read-out: Amount of INFa relative to that induced by isatoribine at 100 μM): 128%

Compound: CC(C)Cn1cnc2c(N)nc3ccccc3c21 [Compound 31, 1-Isobutyl-1H-imidazo[4,5-c]quinolin-4-ylamine]
- HCV replicon inhibition (HCV replicon; Table 5 No. 1, PBMC exposed 8 hours to 3.2 μM, donor FL75287, supernatant dilution 1:10): 100%
- HCV replicon inhibition (HCV replicon; Table 5 No. 1, PBMC exposed 8 hours to 3.2 μM, donor FL75287, supernatant dilution 1:100): 100%
- HCV replicon inhibition (HCV replicon; Table 5 No. 1, PBMC exposed 8 hours to 3.2 μM, donor FL75287, supernatant dilution 1:1000): 89%
- HCV replicon inhibition (HCV replicon; Table 5 No. 2, PBMC exposed 8 hours to 3.2 μM, donor FL75287, supernatant dilution 1:10): 100%
- HCV replicon inhibition (HCV replicon; Table 5 No. 2, PBMC exposed 8 hours to 3.2 μM, donor FL75287, supernatant dilution 1:100): 75%
- HCV replicon inhibition (HCV replicon; Table 5 No. 2, PBMC exposed 8 hours to 3.2 μM, donor FL75287, supernatant dilution 1:1000): 1%
- Emax at 100 µM ([1]; Homo sapiens, PBMC, 24 h, read-out: Amount of INFa relative to that induced by isatoribine at 100 μM): 60 to 76%

Compound: CCOC(=O)N(C)COc1nc(N)nc2c1sc(=O)n2[C@@H]1O[C@H](CO)[C@@H](O)[C@H]1O [Compound 84, (5-Amino-2-oxo-3-β-D-ribofuranosyl-2,3-dihydro-thiazolo[4,5-d]pyrimidin-7-yloxymethyl)-methyl-carbamic acid ethyl ester]
- Emax at 100 µM [1, 7]: 0%

Compound: CC(=O)OC[C@H]1O[C@@H](n2c(=O)sc3c(OCc4oc(=O)oc4C)nc(N)nc32)[C@H](OC(C)=O)[C@@H]1OC(C)=O [Compound 85, 5-Amino-7-(5-methyl-2-oxo-[1,3]dioxol-4-ylmethoxy)-3-(2′,3′,5′-tri-O-acetyl-β-D-ribofuranosyl)-thiazolo[4,5-d]pyrimidin-2-one]
- Emax at 100 µM [1, 7]: 0%

Compound: [2-Ethoxymethyl-1-(2-hydroxy-2-methyl-propyl)-1H-imidazo[4,5-c]quinolin-4-yl]-carbamic acid ethyl ester [Compound 39]
- Amount of INFa relative to that induced by isatoribine at 100 μM ([1]; Table 12, 1 μM, 24 hours exposure): 95 @ 1 μM %
